Assays:
RGS2 = target: T1, RGS2 (Homo sapiens, UniProt P41220); test: Cellular thermal shift assay (CETSA), RGS2-HA; assay type: binding; settings: 100 μM overnight (16–18 hours); gradient 40–60 °C; vs DMSO
T1 construct: Because both full-length RGS2 and FBXO44 are extremely difficult to express as recombinant proteins, we opted for a cell-based method; expressed in transfected cells; host or cells: HEK-293T, transient transfection
T1 sequence (P41220 1-211): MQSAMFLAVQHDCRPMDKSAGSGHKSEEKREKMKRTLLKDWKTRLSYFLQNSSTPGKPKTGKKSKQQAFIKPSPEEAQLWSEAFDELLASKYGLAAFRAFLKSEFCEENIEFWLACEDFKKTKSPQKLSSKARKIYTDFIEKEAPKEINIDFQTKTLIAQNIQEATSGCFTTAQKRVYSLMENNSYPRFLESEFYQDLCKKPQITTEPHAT
Experimental: The cells in 100 mm dishes were harvested by trypsination in reduced serum media and transferred to 15 mL conical tubes. The cells were centrifuged at 300 × g for 3 minutes. Media was removed, and the cell pellet was washed with 10 mL of PBS. The cells were then resuspended in 500 μL of PBS and aliquoted into polymerase chain reaction (PCR) tubes. The cells were then heated in a PCR gradient (40–60 °C) for 3 minutes and then transferred to a 25 °C PCR block for 3 minutes. Following this, cells were immediately flash-frozen using liquid nitrogen. The cells were freeze-thawed 3 times to lyse the cells and then spun down at 20,000 × g for 20 minutes. The supernatant was then added to sample buffer and heated for 5 minutes at 95 °C before SDS-PAGE and western blot analysis.
We next assessed whether the action of compound 10 to inhibit the RGS2-FBXO44 interaction is through direct binding to either protein. […] The cells were lysed and analyzed by western blot to determine melting temperatures (Tm). […] We also assessed the effect of compound 10 on the Tm for RGS4, which is closely related to RGS2 and also subject to proteasomal degradation, however, independent of FBXO44 ([Lee et al, 2005]; [Sjögren et al, 2015]).

RGS2-FBXO44 interaction = target: T2, RGS2-FBXO44 interaction (Homo sapiens, UniProt P41220); test: RGS2-FBXO44 NanoBit assay (HEK-293T RGS2-SmBiT/LgBiT-FBXO44 stable clone #6); assay type: cell-based
T2 construct: expressed in transfected cells
T2 sequence (P41220 1-211): T1 sequence (P41220 1-211)
Experimental: Nano-Glo Live Cell Substrate (LCS) was diluted 1:50 in HBSS to form a 2× stock, and then, 15 μL was added to each well. Plates were shaken on an orbital shaker at 500 rpm for 5 minutes protected from light and then spun down at 1000 rpm for 30 seconds. Plates were incubated at room temperature for 20 minutes, and then, luminescence was detected on a Synergy Neo2 multimode plate reader.
(§1) HEK-293T-RGS2-FBXO44 NanoBit cells were treated for 16–18 hours with compound at 100 μM. This relatively high concentration was chosen because of the challenging nature of our assay (intracellular PPI inhibition). Parental HEK-293T cells were used as a negative control. […] Based on these criteria, 97 compounds were identified as hits from our primary screen (6.1% initial hit rate). To confirm hits, the same assay was repeated in triplicate, which delivered 34 compounds that reached the threshold for inhibition in at least 2 replicates with <25% cell toxicity (Fig. 2C; Supplemental Table 1), thus rendering a final hit rate of 2.1%.
Fresh powders of 20 compounds were purchased and reassayed for their ability to inhibit the RGS2-FBXO44 NanoBit signal, using the same assay paradigm as in the primary screen (Fig. 3; Table 1). […] Nevertheless, all compounds were confirmed to inhibit the RGS2-FBXO44 NanoBit signal at this high concentration.
We next assessed the concentration-dependent effect of our 20 hits. Compounds were assayed at concentrations ranging from 500 to 0.01 μM. NanoBit luminescence (relative luminescence units) was normalized to viability (RFU) and presented as a percentage of untreated cells.

[1] = system: HEK-293T-RGS2-FBXO44 NanoBit cells; test: Cell viability assay (GF-AFC fluorescence) multiplexed with NanoBit; assay type: cell-based, Human; settings: 100 μM, 16–18 hours, fresh powder
Experimental: The cells were plated in DMEM without phenol red (Gibco, #21063), 0.1% BSA in a white, tissue culture-treated 384-well plate (Perkin Elmer) at 15,000 cells/well, unless indicated otherwise, and allowed to attach. The plate was centrifuged at 212 × g for 30 seconds to aid in even cell adherence. Compound treatments were initiated 4–5 hours after plating. Following indicated treatment times, media was removed from the plate using BioTek ELx405 plate washer. Additionally, 10 μL of Hank’s Balanced Salt solution (HBSS) with 0.1% BSA was added to each well, followed by 5 μL of glycyl-phenylalanyl-aminofluorocoumarin (GF-AFC; MP Biomedicals) diluted 1:1000 in 100 mM HEPES. Plates were then centrifuged at 212 × g for 30 seconds and then incubated at 37 °C for 30 minutes. Fluorescence was detected on a Synergy Neo2 multimode plate reader (BioTek/Agilent).
Our primary assay using the HEK-293T RGS2-FBXO44 NanoBit cell line was extensively optimized to ensure maximum quality for screening. Coupling a fluorescent cell viability assay with our screen would allow us to rule out cytotoxic compounds while also hopefully reducing outliers from pipetting errors while plating cells. Thus, we multiplexed our NanoBit assay with cell viability using a cell-permeable fluorogenic protease substrate (glycyl-phenylalanyl-aminofluorocoumarin; GF-AFC; [Niles et al, 2007]), which can be combined with a luminescent readout without interfering with the luciferase signal. We previously utilized a similar multiplexing strategy in several screens ([Sjögren et al, 2012]; [Raveh et al, 2014]; [Sjögren et al, 2015]). We assessed and optimized treatment conditions (time, temperature, and reagent volume), cell density, buffer composition, and DMSO tolerance. In addition to the supplied proprietary LCS buffer (Promega), we also tested DMEM, 0.1% BSA, PBS, and HBSS (Supplemental Fig. 1A–C). […] The luminescent signal was stable up to 45 minutes after reagent addition, and we chose to run subsequent assays using 20 minutes of incubation time (Supplemental Fig. 1E). We also observed no effect on either viability or luminescence signal at DMSO concentrations <1% (Data not shown).
as §1

How did the “Increase in the Tm for RGS2” value (RGS2) turn out when `CCC1CCCCN1S(=O)(=O)c1cc(Br)ccc1OC` (stereo not shown) [Compound 10] was run?
Its value is 2.4 °C.

And the “% Inhibition @ 100 μM of RGS2-FBXO44 NanoBit signal” value (RGS2-FBXO44 interaction; 100 μM, 16–18 hours, fresh powder, luminescence normalized to viability, vs nontreated cells)?
The value was 71.7∗∗∗∗ %.

What about the IC50 (RGS2-FBXO44 interaction; concentrations 500 to 0.01 μM, RLU normalized to viability (RFU), read-out: IC50 (μM), inhibition of RGS2-FBXO44 NanoBit signal) of the same compound?
The IC50 was 19.6 µM.

What about the “Viability (% of Control)” value [1] of the same compound?
Its value is 69.3∗∗∗∗ % of Control.

Reference: publication PMC13095444, “Discovery of RGS2-FBXO44 interaction inhibitors using a cell-based NanoBit assay” (Molecular Pharmacology, 2025)
